# Experimental data taken from patent US20030199692A1, “Propanoic acid derivatives that inhibit the binding of integrins to their receptors” (priority 1999, published 2003).
# pIC50: −log10 of the molar value.
# Target: T1, α4β1 integrin (Homo sapiens, UniProt P05556+P13612)
# T1 construct: endogenous in cells; host or cells: Ramos cells
# Experiment: Inhibition of adhesion of calcein AM-labeled Ramos cells to CS1 (fibronectin) peptide-conjugated ovalbumin
# Format: cell-based
# Settings: Table 4; Ramos cell adhesion to CS1-conjugated ovalbumin, 30 minutes at 37° C.
# Method: The ability of compounds of the present invention to inhibit binding is determined by a procedure in which a 26-amino acid peptide containing the CS1 sequence of fibronectin with an N-terminal Cys ([…]) was coupled to maleimide activated ovalbumin. Bovine serum albumin (BSA) and CS1 conjugated ovalbumin were coated onto 96-well polystyrene plates at 0.5 mg/ml in TBS (50 mM Tris, pH 7.5; 150 mM NaCl) at 4° C. for 16 hours. The plates were washed three times with TBS and blocked with TBS containing 3% BSA at room temperature for 4 hours. Blocked plates were washed three times in binding buffer (TBS; 1 mM MgCl2; 1 mM CaCl2; 1 mM MnCl2) prior to assay. Ramos cells fluorescently labeled with calcein AM were resuspended in binding buffer (10^7 cells/ml) and diluted 1:2 with same buffer with or without compound. The cells were added immediately to the wells (2.5×10^5 cells/well) and incubated for 30 minutes at 37° C. Following three washes with binding buffer, adherent cells were lysed and quantitated using a fluorometer. IC50 is defined as the dose required to give 50% inhibition. MS in Table 3 stands for Mass Spec. nd stands for not determined in the Tables. A stands for inhibition in Table 2, and the percent inhibition indicates the inhibition of cell adhesion when compound is included in the assay at a concentration of 100 μM. The lower the IC50 value and the greater the percentage of inhibition, the more efficient the compound is at prevention of cell adhesion.
# T1 sequence (P13612 34-1032): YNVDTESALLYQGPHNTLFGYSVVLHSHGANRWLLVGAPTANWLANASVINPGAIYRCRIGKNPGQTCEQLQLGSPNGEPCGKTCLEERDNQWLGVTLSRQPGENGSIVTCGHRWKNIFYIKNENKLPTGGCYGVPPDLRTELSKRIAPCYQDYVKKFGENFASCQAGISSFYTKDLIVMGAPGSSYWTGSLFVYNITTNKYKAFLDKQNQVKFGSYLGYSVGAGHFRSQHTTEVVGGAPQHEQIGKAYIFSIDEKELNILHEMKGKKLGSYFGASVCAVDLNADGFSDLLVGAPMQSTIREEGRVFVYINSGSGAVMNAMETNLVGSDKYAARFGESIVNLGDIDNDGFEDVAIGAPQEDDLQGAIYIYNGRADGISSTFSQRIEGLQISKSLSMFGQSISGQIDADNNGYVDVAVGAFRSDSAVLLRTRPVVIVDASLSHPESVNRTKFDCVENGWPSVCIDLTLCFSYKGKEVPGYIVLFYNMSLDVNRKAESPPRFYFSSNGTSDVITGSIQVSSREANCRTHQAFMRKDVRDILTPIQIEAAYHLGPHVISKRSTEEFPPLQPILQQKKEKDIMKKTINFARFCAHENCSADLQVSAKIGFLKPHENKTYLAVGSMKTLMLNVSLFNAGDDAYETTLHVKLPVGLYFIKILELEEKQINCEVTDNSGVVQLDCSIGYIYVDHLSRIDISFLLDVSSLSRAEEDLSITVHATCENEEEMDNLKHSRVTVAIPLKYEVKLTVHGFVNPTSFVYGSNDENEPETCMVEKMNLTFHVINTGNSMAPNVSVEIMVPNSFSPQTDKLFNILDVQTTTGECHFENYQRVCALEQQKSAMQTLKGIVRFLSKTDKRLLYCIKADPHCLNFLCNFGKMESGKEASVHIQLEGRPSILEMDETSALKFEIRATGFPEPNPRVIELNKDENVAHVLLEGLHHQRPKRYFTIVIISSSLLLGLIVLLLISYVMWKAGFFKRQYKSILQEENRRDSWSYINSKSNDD
# T1 sequence (P05556 21-798): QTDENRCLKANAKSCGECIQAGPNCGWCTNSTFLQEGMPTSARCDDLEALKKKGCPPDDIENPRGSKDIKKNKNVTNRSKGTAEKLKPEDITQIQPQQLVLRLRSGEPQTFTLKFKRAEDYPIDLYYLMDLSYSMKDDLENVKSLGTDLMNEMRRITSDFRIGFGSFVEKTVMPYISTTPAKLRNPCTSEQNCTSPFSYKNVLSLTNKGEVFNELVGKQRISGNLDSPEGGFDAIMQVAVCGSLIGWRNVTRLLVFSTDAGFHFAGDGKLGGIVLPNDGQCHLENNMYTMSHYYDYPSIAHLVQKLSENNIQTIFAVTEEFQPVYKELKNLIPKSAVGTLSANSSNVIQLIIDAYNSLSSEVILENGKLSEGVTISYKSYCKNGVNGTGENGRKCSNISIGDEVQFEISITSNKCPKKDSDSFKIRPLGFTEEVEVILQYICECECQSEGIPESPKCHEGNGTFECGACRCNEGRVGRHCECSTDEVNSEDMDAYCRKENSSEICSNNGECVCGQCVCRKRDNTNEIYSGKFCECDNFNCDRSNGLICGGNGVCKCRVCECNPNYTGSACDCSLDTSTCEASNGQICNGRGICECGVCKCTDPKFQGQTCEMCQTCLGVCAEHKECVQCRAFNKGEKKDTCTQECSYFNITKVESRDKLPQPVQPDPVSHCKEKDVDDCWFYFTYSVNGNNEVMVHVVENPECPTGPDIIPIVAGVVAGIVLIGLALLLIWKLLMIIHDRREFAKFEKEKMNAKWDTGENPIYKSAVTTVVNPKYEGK
row,Compound,pIC50
1,CCCCC(C(=O)N[C@@H](CC(=O)O)c1cccc(OC(C)C)c1)n1ccc(CCc2ccccc2)cc1=O (stereo partly drawn) [(3S)-3-(3-isopropoxyphenyl)-3-({2-[2-oxo-4-(2-phenylethyl)pyridin-1(2H)-yl]hexanoyl}amino)propanoic acid],7.02
2,CCCCC(C(=O)N[C@@H](CC(=O)O)c1cccc(OC(C)C)c1)n1cc(C)cc(Cc2ccccc2OC)c1=O (stereo partly drawn) [(3S)-3-(3-isopropoxyphenyl)-3-({2-[3-(2-methoxybenzyl)-5-methyl-2-oxopyridin-1(2H)-yl]hexanoyl}amino)propanoic acid],8.40
3,CCCCC(C(=O)N[C@@H](CC(=O)O)c1ccc(CC)cc1)n1cc(C)cc(Cc2ccccc2)c1=O (stereo partly drawn) [(3S)-3-(4-ethylphenyl)-3-({2-[5-methyl-2-oxo-3-(phenylmethyl)-1(2H)-pyridinyl]hexanoyl}amino)propanoic acid],7.40
4,"CCCCC(C(=O)N[C@@H](CC(=O)O)c1cccc(OC(C)C)c1)n1cc(C)cc(Cc2c(Cl)cccc2Cl)c1=O (stereo partly drawn) [(3S)-3-({2-[3-(2,6-dichlorobenzyl)-5-methyl-2-oxopyridin-1(2H)-yl]hexanoyl}amino)-3-(3-isopropoxyphenyl)propanoic acid]",6.56
5,CCCCC(C(=O)N[C@@H](CC(=O)O)c1cccc(OC(C)C)c1)n1cc(C)cc(Cc2ccccc2Cl)c1=O (stereo partly drawn) [(3S)-3-({2-[3-(2-chlorobenzyl)-5-methyl-2-oxopyridin-1(2H)-yl]hexanoyl}amino)-3-(3-isopropoxyphenyl)propanoic acid],8.30
6,CCCCC(C(=O)N[C@@H](CC(=O)O)c1ccc(C)cc1)n1cc(C)cc(Cc2ccccc2Cl)c1=O (stereo partly drawn) [(3S)-3-({2-[3-(2-chlorobenzyl)-5-methyl-2-oxopyridin-1(2H)-yl]hexanoyl}amino)-3-(4-methylphenyl)propanoic acid],7.82
7,CCCCC(C(=O)N[C@@H](CC(=O)O)c1ccccc1)n1cc(C)cc(Cc2ccccc2Cl)c1=O (stereo partly drawn) [(3S)-3-({2-[3-(2-chlorobenzyl)-5-methyl-2-oxopyridin-1(2H)-yl]hexanoyl}amino)-3-phenylpropanoic acid],7.92
8,CCCCC(C(=O)N[C@@H](CC(=O)O)c1cccc(OC(C)C)c1)n1cc(C)cc(Cc2ccccc2OCC)c1=O (stereo partly drawn) [(3S)-3-({2-[3-(2-ethoxybenzyl)-5-methyl-2-oxopyridin-1(2H)-yl]hexanoyl}amino)-3-(3-isopropoxyphenyl)propanoic acid],7.72

# Now from value to molecule:
row,pIC50,Compound
1,7.70,CCCCC(C(=O)N[C@@H](CC(=O)O)c1cccc(OC(C)C)c1)n1cc(C)cc(Cc2cccc(Cl)c2)c1=O (stereo partly drawn) [(3S)-3-({2-[3-(3-chlorobenzyl)-5-methyl-2-oxopyridin-1(2H)-yl]hexanoyl}amino)-3-(3-isopropoxyphenyl)propanoic acid]
2,7.64,CCCCC(C(=O)N[C@@H](CC(=O)O)c1cccc(OCCC)c1)n1cc(C)cc(Cc2cccc(Cl)c2)c1=O (stereo partly drawn) [(3S)-3-({2-[3-(3-chlorobenzyl)-5-methyl-2-oxopyridin-1(2H)-yl]hexanoyl}amino)-3-(3-propoxyphenyl)propanoic acid]
3,7.17,"CCCCC(C(=O)N[C@@H](CC(=O)O)c1cccc(OC(C)C)c1)n1cc(C)cc(Cc2cccc(Cl)c2Cl)c1=O (stereo partly drawn) [(3S)-3-({2-[3-[(2,3-dichlorophenyl)methyl]-5-methyl-2-oxo-1(2H)-pyridinyl]hexanoyl}amino)-3-{3-[(1-methylethyl)oxy]phenyl}propanoic acid]"
4,7.77,CCCCC(C(=O)N[C@@H](CC(=O)O)c1cccc(OC(C)C)c1)n1cc(C)cc(Cc2ccc(F)cc2Cl)c1=O (stereo partly drawn) [(3S)-3-({2-[3-[(2-chloro-4-fluorophenyl)methyl]-5-methyl-2-oxo-1(2H)-pyridinyl]hexanoyl}amino)-3-{3-[(1-methylethyl)oxy]phenyl}propanoic acid]
5,6.56,"CCCCC(C(=O)N[C@@H](CC(=O)O)c1cccc(OC(C)C)c1)n1cc(C)cc(Cc2c(Cl)cc(Cl)cc2OC)c1=O (stereo partly drawn) [(3S)-3-({2-[3-{[2,4-dichloro-6-(methyloxy)phenyl]methyl}-5-methyl-2-oxo-1(2H)-pyridinyl]hexanoyl}amino)-3-{3-[(1-methylethyl)oxy]phenyl}propanoic acid]"
